Key:
Test in all cases: KINOMEscan competition binding
Settings in all cases: compound 10.0 µM
ACVR2B (human) = ACVR2B (human) (UniProt Q13705)
ADCK3 (human) = ADCK3 (human) (UniProt Q8NI60)
BMX (human) = BMX (human) (UniProt P51813)
CDC2L2 (human) = CDC2L2 (human) (UniProt Q9UQ88)
CDK14 (human) = CDK14 (human) (UniProt O94921)
CDK9 (human) = CDK9 (human) (UniProt P50750)
DAPK2 (human) = DAPK2 (human) (UniProt Q9UIK4)
DCLK3 (human) = DCLK3 (human) (UniProt Q9C098)
FER (human) = FER (human) (UniProt P16591)
FLT1 (human) = FLT1 (human) (UniProt P17948)
[1] = system: FLT3 (human), P36888 [N841I]
HCK (human) = HCK (human) (UniProt P08631)
HIPK2 (human) = HIPK2 (human) (UniProt Q9H2X6)
HUNK (human) = HUNK (human) (UniProt P57058)
IRAK1 (human) = IRAK1 (human) (UniProt P51617)
KDR (human) = KDR (human) (UniProt P35968)
LYN (human) = LYN (human) (UniProt P07948)
MAP3K1 (human) = MAP3K1 (human) (UniProt Q13233)
MAPK14 (human) = MAPK14 (human) (UniProt Q16539)
MARK1 (human) = MARK1 (human) (UniProt Q9P0L2)
[2] = system: MET (human), P08581 [M1250T]
[3] = system: MET (human), P08581 [Y1235D]
MKNK2 (human) = MKNK2 (human) (UniProt Q9HBH9)
MST4 (human) = MST4 (human) (UniProt Q9P289)
MYLK (human) = MYLK (human) (UniProt Q15746)
MYLK4 (human) = MYLK4 (human) (UniProt Q86YV6)
NUAK1 (human) = NUAK1 (human) (UniProt O60285)
PAK2 (human) = PAK2 (human) (UniProt Q13177)
PAK3 (human) = PAK3 (human) (UniProt O75914)
[4] = system: PIK3CA (human), P42336 [Q546K]
PIK3CB (human) = PIK3CB (human) (UniProt P42338)
PLK2 (human) = PLK2 (human) (UniProt Q9NYY3)
PRPF4B (human) = PRPF4B (human) (UniProt Q13523)
SBK1 (human) = SBK1 (human) (UniProt Q52WX2)
SIK2 (human) = SIK2 (human) (UniProt Q9H0K1)
SRC (human) = SRC (human) (UniProt P12931)
STK32C (human) = STK32C (human) (UniProt Q86UX6)
STK4 (human) = STK4 (human) (UniProt Q13043)
TEC (human) = TEC (human) (UniProt P42680)
ULK2 (human) = ULK2 (human) (UniProt Q8IYT8)
YES1 (human) = YES1 (human) (UniProt P07947)
CSNK1D (human) = CSNK1D (human) (UniProt P48730)

Sequence of CDK9 (human) (P50750 whole entry, looked up): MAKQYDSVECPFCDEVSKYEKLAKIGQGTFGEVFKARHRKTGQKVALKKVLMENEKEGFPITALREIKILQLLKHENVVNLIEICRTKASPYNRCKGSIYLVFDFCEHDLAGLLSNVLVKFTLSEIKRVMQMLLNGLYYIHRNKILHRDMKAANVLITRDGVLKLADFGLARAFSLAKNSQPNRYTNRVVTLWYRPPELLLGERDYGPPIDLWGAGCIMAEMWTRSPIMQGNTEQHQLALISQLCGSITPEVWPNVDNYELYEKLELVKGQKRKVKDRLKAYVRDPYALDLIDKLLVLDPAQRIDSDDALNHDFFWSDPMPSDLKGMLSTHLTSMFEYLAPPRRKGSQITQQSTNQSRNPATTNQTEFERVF
Sequence of YES1 (human) (P07947 whole entry, looked up): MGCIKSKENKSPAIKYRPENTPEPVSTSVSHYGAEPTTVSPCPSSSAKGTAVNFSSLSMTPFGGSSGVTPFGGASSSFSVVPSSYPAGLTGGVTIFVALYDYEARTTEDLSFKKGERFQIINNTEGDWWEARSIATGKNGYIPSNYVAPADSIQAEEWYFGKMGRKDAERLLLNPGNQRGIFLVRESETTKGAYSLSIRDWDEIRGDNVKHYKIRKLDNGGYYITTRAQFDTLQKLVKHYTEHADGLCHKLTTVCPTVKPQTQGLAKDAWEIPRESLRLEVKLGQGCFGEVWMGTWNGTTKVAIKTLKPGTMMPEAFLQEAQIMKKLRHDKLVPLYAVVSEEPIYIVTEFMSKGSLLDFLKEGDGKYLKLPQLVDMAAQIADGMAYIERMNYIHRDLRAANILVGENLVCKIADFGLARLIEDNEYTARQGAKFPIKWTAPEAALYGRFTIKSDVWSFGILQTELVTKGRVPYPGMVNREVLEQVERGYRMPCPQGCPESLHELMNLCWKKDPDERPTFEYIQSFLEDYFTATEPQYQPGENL
Sequence of STK4 (human) (Q13043 whole entry, looked up): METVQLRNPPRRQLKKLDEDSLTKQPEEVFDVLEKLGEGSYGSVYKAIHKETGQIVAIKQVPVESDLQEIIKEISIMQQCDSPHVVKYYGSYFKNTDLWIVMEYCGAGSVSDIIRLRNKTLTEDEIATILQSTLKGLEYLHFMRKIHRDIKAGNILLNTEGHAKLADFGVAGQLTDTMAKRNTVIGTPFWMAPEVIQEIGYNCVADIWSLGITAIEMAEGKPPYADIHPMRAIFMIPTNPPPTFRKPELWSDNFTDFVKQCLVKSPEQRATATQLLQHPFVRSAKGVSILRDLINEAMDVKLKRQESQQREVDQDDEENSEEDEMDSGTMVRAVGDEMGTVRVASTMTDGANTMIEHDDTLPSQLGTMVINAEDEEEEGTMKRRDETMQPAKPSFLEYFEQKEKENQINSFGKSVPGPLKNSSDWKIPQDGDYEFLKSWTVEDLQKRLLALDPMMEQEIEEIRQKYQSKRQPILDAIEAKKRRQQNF
Sequence of TEC (human) (P42680 whole entry, looked up): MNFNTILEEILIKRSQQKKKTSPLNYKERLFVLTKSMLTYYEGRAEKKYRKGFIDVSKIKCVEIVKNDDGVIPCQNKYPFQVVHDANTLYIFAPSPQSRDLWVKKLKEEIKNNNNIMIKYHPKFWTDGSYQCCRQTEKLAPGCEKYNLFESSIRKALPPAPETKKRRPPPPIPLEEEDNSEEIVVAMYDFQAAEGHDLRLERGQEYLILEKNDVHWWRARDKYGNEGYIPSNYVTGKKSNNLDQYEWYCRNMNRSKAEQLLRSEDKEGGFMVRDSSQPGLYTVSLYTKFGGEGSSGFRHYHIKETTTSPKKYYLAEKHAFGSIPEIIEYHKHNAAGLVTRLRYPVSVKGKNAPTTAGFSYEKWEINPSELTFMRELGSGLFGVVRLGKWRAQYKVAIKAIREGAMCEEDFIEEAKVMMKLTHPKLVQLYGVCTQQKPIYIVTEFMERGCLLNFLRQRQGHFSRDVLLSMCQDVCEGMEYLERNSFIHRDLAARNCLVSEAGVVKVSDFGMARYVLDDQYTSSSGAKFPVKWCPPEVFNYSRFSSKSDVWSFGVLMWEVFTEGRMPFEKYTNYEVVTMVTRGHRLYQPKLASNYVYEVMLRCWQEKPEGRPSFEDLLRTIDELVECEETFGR
Sequence of HIPK2 (human) (Q9H2X6 whole entry, looked up): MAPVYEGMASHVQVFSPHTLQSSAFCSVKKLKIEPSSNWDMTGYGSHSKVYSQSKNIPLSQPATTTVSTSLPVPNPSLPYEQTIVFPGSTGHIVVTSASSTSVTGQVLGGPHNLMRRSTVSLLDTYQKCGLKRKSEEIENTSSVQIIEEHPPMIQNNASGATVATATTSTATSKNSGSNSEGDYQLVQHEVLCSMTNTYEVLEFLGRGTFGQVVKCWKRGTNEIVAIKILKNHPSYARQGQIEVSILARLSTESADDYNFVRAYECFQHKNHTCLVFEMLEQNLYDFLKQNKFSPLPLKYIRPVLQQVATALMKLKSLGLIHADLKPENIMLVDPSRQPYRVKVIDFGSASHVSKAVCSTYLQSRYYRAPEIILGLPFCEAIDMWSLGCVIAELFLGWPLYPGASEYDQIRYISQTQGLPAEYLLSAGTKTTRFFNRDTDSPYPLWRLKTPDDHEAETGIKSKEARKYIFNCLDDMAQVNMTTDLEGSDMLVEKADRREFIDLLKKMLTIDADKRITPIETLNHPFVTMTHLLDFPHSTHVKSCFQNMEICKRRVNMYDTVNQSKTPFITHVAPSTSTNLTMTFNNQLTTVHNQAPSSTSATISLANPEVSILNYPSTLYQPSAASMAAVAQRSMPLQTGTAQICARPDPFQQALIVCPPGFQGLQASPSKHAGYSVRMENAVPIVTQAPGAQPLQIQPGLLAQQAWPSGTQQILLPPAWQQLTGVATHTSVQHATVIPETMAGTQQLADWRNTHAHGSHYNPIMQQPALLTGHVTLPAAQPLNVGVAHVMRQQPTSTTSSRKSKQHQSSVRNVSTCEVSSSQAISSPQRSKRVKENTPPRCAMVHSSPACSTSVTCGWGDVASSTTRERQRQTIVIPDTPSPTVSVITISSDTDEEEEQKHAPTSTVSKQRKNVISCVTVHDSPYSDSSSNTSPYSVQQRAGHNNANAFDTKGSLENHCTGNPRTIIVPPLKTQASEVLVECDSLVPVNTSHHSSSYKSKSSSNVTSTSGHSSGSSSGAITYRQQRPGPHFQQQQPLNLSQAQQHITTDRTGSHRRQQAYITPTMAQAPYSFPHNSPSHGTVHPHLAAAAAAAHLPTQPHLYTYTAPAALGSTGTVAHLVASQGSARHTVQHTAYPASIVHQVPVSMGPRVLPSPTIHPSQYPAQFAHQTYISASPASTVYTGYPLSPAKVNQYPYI
Sequence of SIK2 (human) (Q9H0K1 whole entry, looked up): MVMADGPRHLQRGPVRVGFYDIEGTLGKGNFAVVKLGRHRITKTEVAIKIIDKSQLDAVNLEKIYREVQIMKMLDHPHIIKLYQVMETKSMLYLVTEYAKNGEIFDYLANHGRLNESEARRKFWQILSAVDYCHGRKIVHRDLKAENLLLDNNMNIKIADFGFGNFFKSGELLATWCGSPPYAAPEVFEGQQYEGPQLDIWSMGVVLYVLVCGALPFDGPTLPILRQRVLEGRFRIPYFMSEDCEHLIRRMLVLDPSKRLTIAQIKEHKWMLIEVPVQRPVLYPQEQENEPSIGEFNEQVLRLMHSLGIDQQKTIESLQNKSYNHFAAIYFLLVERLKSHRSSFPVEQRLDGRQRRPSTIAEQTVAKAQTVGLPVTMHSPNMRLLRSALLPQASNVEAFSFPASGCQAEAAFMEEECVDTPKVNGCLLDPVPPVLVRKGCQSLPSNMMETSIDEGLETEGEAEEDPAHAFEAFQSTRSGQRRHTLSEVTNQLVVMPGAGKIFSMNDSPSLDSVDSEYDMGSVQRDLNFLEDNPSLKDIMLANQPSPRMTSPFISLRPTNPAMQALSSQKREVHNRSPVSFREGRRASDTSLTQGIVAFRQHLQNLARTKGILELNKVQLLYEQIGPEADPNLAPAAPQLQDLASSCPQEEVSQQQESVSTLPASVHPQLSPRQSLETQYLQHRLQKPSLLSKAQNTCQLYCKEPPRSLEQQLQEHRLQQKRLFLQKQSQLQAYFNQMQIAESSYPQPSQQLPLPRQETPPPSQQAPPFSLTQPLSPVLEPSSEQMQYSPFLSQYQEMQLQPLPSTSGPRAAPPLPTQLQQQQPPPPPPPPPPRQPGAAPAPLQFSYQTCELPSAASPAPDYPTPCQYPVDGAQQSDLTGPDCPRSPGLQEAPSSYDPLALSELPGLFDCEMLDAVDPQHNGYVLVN
Sequence of FER (human) (P16591 whole entry, looked up): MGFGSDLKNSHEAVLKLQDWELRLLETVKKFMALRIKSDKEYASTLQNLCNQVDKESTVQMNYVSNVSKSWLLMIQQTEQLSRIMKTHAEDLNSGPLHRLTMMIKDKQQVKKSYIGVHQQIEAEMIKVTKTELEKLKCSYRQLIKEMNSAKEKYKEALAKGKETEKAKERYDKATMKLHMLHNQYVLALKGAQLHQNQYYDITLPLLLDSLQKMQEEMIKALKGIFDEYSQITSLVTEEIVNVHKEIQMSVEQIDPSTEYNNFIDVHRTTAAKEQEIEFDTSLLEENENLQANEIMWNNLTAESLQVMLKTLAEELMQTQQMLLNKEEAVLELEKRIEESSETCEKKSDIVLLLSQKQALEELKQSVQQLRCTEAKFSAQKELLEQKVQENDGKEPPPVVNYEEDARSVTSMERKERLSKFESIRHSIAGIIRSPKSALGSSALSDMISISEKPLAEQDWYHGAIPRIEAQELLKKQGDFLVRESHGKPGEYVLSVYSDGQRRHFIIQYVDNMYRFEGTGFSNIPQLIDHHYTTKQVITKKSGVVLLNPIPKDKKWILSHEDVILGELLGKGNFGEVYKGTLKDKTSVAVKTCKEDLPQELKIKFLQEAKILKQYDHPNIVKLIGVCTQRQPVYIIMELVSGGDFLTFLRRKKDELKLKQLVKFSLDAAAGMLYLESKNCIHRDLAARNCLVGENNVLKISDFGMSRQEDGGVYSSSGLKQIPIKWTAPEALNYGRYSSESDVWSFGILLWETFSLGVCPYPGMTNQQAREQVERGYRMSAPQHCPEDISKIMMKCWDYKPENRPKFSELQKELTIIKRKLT

Compound: COc1ccc(CNC(=O)Nc2ncc([N+](=O)[O-])s2)cc1
- kinase still bound, per cent of control (ACVR2B (human)): 100%
- kinase still bound, per cent of control (ADCK3 (human)): 100%
- kinase still bound, per cent of control (BMX (human)): 100%
- kinase still bound, per cent of control (CDC2L2 (human)): 100%
- kinase still bound, per cent of control (CDK14 (human)): 95%
- kinase still bound, per cent of control (CDK9 (human)): 89%
- kinase still bound, per cent of control (DAPK2 (human)): 93%
- kinase still bound, per cent of control (DCLK3 (human)): 66%
- kinase still bound, per cent of control (FER (human)): 100%
- kinase still bound, per cent of control (FLT1 (human)): 57%
- kinase still bound, per cent of control [1]: 89%
- kinase still bound, per cent of control (HCK (human)): 100%
- kinase still bound, per cent of control (HIPK2 (human)): 90%
- kinase still bound, per cent of control (HUNK (human)): 81%
- kinase still bound, per cent of control (IRAK1 (human)): 100%
- kinase still bound, per cent of control (KDR (human)): 67%
- kinase still bound, per cent of control (LYN (human)): 74%
- kinase still bound, per cent of control (MAP3K1 (human)): 100%
- kinase still bound, per cent of control (MAPK14 (human)): 100%
- kinase still bound, per cent of control (MARK1 (human)): 100%
- kinase still bound, per cent of control [2]: 93%
- kinase still bound, per cent of control [3]: 96%
- kinase still bound, per cent of control (MKNK2 (human)): 100%
- kinase still bound, per cent of control (MST4 (human)): 99%
- kinase still bound, per cent of control (MYLK (human)): 100%
- kinase still bound, per cent of control (MYLK4 (human)): 91%
- kinase still bound, per cent of control (NUAK1 (human)): 100%
- kinase still bound, per cent of control (PAK2 (human)): 87%
- kinase still bound, per cent of control (PAK3 (human)): 90%
- kinase still bound, per cent of control [4]: 90%
- kinase still bound, per cent of control (PIK3CB (human)): 100%
- kinase still bound, per cent of control (PLK2 (human)): 100%
- kinase still bound, per cent of control (PRPF4B (human)): 100%
- kinase still bound, per cent of control (SBK1 (human)): 100%
- kinase still bound, per cent of control (SIK2 (human)): 80%
- kinase still bound, per cent of control (SRC (human)): 78%
- kinase still bound, per cent of control (STK32C (human)): 76%
- kinase still bound, per cent of control (STK4 (human)): 100%
- kinase still bound, per cent of control (TEC (human)): 100%
- kinase still bound, per cent of control (ULK2 (human)): 100%
- kinase still bound, per cent of control (YES1 (human)): 83%

Compound: Cc1cnc(-c2cnc(NCCNc3ccc(C#N)cn3)nc2-c2ccc(Cl)cc2Cl)[nH]1
- kinase still bound, per cent of control (ACVR2B (human)): 100%
- kinase still bound, per cent of control (ADCK3 (human)): 100%
- kinase still bound, per cent of control (BMX (human)): 100%
- kinase still bound, per cent of control (CDC2L2 (human)): 100%
- kinase still bound, per cent of control (CDK14 (human)): 100%
- kinase still bound, per cent of control (CDK9 (human)): 58%
- kinase still bound, per cent of control (CSNK1D (human)): 81%
- kinase still bound, per cent of control (DAPK2 (human)): 94%
- kinase still bound, per cent of control (DCLK3 (human)): 34%
- kinase still bound, per cent of control (FER (human)): 100%
- kinase still bound, per cent of control (FLT1 (human)): 79%
- kinase still bound, per cent of control [1]: 75%
- kinase still bound, per cent of control (HCK (human)): 100%
- kinase still bound, per cent of control (HIPK2 (human)): 100%
- kinase still bound, per cent of control (HUNK (human)): 100%
- kinase still bound, per cent of control (IRAK1 (human)): 100%
- kinase still bound, per cent of control (KDR (human)): 100%
- kinase still bound, per cent of control (LYN (human)): 100%
- kinase still bound, per cent of control (MAP3K1 (human)): 100%
- kinase still bound, per cent of control (MAPK14 (human)): 98%
- kinase still bound, per cent of control (MARK1 (human)): 91%
- kinase still bound, per cent of control [2]: 92%
- kinase still bound, per cent of control [3]: 100%
- kinase still bound, per cent of control (MKNK2 (human)): 82%
- kinase still bound, per cent of control (MST4 (human)): 82%
- kinase still bound, per cent of control (MYLK (human)): 59%
- kinase still bound, per cent of control (MYLK4 (human)): 98%
- kinase still bound, per cent of control (NUAK1 (human)): 100%
- kinase still bound, per cent of control (PAK2 (human)): 94%
- kinase still bound, per cent of control (PAK3 (human)): 90%
- kinase still bound, per cent of control [4]: 100%
- kinase still bound, per cent of control (PIK3CB (human)): 100%
- kinase still bound, per cent of control (PLK2 (human)): 79%
- kinase still bound, per cent of control (PRPF4B (human)): 100%
- kinase still bound, per cent of control (SBK1 (human)): 100%
- kinase still bound, per cent of control (SIK2 (human)): 100%
- kinase still bound, per cent of control (SRC (human)): 100%
- kinase still bound, per cent of control (STK32C (human)): 97%
- kinase still bound, per cent of control (STK4 (human)): 100%
- kinase still bound, per cent of control (TEC (human)): 100%
- kinase still bound, per cent of control (ULK2 (human)): 96%
- kinase still bound, per cent of control (YES1 (human)): 100%

Compound: Cn1cc(C2=C(c3ccc(Cl)cc3Cl)C(=O)NC2=O)c2ccccc21
- kinase still bound, per cent of control (ACVR2B (human)): 100%
- kinase still bound, per cent of control (ADCK3 (human)): 100%
- kinase still bound, per cent of control (BMX (human)): 78%
- kinase still bound, per cent of control (CDC2L2 (human)): 100%
- kinase still bound, per cent of control (CDK14 (human)): 29%
- kinase still bound, per cent of control (CDK9 (human)): 92%
- kinase still bound, per cent of control (CSNK1D (human)): 94%
- kinase still bound, per cent of control (DAPK2 (human)): 67%
- kinase still bound, per cent of control (DCLK3 (human)): 66%
- kinase still bound, per cent of control (FER (human)): 100%
- kinase still bound, per cent of control (FLT1 (human)): 100%
- kinase still bound, per cent of control [1]: 47%
- kinase still bound, per cent of control (HCK (human)): 100%
- kinase still bound, per cent of control (HIPK2 (human)): 15%
- kinase still bound, per cent of control (HUNK (human)): 100%
- kinase still bound, per cent of control (IRAK1 (human)): 100%
- kinase still bound, per cent of control (KDR (human)): 100%
- kinase still bound, per cent of control (LYN (human)): 100%
- kinase still bound, per cent of control (MAP3K1 (human)): 100%
- kinase still bound, per cent of control (MAPK14 (human)): 72%
- kinase still bound, per cent of control (MARK1 (human)): 96%
- kinase still bound, per cent of control [2]: 73%
- kinase still bound, per cent of control [3]: 85%
- kinase still bound, per cent of control (MKNK2 (human)): 89%
- kinase still bound, per cent of control (MST4 (human)): 100%
- kinase still bound, per cent of control (MYLK (human)): 64%
- kinase still bound, per cent of control (MYLK4 (human)): 38%
- kinase still bound, per cent of control (NUAK1 (human)): 90%
- kinase still bound, per cent of control (PAK2 (human)): 61%
- kinase still bound, per cent of control (PAK3 (human)): 86%
- kinase still bound, per cent of control [4]: 90%
- kinase still bound, per cent of control (PIK3CB (human)): 85%
- kinase still bound, per cent of control (PLK2 (human)): 100%
- kinase still bound, per cent of control (PRPF4B (human)): 100%
- kinase still bound, per cent of control (SBK1 (human)): 97%
- kinase still bound, per cent of control (SIK2 (human)): 89%
- kinase still bound, per cent of control (SRC (human)): 100%
- kinase still bound, per cent of control (STK32C (human)): 94%
- kinase still bound, per cent of control (STK4 (human)): 62%
- kinase still bound, per cent of control (TEC (human)): 84%
- kinase still bound, per cent of control (ULK2 (human)): 96%
- kinase still bound, per cent of control (YES1 (human)): 100%

— the kinase profiling compilation of Christmann-Franck et al. (2016)
